Test results published in US8822517B2, “Arylosulfonamides for the treatment of CNS diseases” (Adamed SP. Z O.O., priority 2010, dated 2014).
Read-outs that look alike come from different tables or passages of the source.

Experiments:
[1] = molecular target: T1, hERG potassium channels (Homo sapiens, UniProt Q12809); test: hERG potassium channel block, electrophysiology (IonWorks Quattro), CHO cells; conditions: % block of hERG current, cloned hERG channels in CHO cells, IonWorks Quattro
Experimental: (§4) Ability to block hERG potassium channels was determined using the electrophysiological method and cloned hERG potassium channels (KCNH2 gene, expressed in CHO cells) as biological material. The effects were evaluated using IonWorks™ Quattro system (MDS-AT).
(§5) hERG current was elicited using a pulse pattern with fixed amplitudes (conditioning prepulse: −80 mV for 25 ms; test pulse: +40 mV for 80 ms) from a holding potential of 0 mV. hERG current was measured as a difference between the peak current at 1 ms after the test step to +40 mV and the steady-state current at the end of the step to +40 mV.
(§6) Data acquisition and analyses was performed using the IonWorks Quattro™ system operation software (version 2.0.2; Molecular Devices Corporation, Union City, Calif.). Data were corrected for leak current.

[2] = molecular target: T2, adrenergic α2C receptor (Homo sapiens, UniProt P18825); test: Binding assay α2C (h), [3H]RX 821002, CHO cells; set-up: expressed in transfected cells; host or cells: CHO cells; conditions: read-out: α2C [%]
T2 sequence (P18825 1-462): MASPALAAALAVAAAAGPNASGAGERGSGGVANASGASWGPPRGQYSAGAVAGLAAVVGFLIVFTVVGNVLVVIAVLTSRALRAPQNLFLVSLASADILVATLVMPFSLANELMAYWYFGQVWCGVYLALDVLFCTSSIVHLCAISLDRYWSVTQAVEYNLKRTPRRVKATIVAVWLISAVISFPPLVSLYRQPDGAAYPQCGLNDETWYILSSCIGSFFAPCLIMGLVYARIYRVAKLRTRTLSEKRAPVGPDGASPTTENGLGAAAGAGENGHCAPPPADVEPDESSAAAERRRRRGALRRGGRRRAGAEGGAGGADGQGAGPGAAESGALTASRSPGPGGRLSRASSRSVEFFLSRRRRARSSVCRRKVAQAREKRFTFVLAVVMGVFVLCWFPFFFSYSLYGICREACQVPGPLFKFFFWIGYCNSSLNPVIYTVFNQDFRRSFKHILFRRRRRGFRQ
Outline: (§1)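 At 1×10^−6 M, compounds were assessed for their effect on specific radioligand binding, computed as total less nonspecific binding (excess unlabelled ligand present).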

[3] = molecular target: T3, serotoninergic 5-HT7 receptor (Homo sapiens, UniProt P34969); test: Binding assay 5-HT7 (h), [3H]LSD, CHO cells; set-up: expressed in transfected cells; host or cells: CHO cells; conditions: read-out: 5-HT7
T3 sequence (P34969 whole entry): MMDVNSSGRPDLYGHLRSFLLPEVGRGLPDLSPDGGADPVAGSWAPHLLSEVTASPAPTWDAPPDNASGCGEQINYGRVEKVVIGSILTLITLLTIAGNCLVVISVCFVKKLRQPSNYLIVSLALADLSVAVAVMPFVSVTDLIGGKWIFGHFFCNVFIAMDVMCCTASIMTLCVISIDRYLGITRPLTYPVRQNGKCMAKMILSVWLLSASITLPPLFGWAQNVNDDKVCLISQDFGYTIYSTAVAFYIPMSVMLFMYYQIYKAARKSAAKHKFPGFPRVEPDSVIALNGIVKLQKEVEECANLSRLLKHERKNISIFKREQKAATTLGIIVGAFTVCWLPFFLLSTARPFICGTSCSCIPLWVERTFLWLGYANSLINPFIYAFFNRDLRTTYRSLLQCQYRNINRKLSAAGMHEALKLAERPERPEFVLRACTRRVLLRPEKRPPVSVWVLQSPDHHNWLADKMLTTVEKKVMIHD
Outline: as §1

[4] = molecular target: T4, serotoninergic 5-HT6 receptor (Homo sapiens, UniProt P50406); test: Binding assay 5-HT6 (h), [3H]LSD, CHO cells; set-up: expressed in transfected cells; host or cells: CHO cells; conditions: read-out: 5-HT6
T4 sequence (P50406 whole entry): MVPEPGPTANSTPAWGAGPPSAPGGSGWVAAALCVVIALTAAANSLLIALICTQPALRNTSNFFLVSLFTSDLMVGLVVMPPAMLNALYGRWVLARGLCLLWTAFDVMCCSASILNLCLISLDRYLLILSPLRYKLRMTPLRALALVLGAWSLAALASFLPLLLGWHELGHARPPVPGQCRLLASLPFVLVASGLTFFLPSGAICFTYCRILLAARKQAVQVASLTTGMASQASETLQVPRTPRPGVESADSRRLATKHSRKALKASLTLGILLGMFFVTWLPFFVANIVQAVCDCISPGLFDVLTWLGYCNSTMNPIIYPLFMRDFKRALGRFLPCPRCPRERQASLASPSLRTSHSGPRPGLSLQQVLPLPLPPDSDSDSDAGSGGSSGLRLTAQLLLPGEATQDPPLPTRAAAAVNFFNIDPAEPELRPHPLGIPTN
Outline: as §1

[5] = test system: adrenergic α1 receptor; test: Binding assay α1 (non-selective), [3H]prazosin, rat cerebral cortex; conditions: percent inhibition of control specific binding; compounds tested at 1×10^−6 M
Outline: as §1

[6] = molecular target: dopaminergic D2 receptor (Homo sapiens, UniProt P14416); test: Binding assay D2S (h), [3H]methyl-spiperone, HEK-293 cells; set-up: expressed in transfected cells; host or cells: HEK-293 cells; conditions: read-out: D2 [%]
Sequence of dopaminergic D2 receptor (P14416 1-414 isoform P14416-2): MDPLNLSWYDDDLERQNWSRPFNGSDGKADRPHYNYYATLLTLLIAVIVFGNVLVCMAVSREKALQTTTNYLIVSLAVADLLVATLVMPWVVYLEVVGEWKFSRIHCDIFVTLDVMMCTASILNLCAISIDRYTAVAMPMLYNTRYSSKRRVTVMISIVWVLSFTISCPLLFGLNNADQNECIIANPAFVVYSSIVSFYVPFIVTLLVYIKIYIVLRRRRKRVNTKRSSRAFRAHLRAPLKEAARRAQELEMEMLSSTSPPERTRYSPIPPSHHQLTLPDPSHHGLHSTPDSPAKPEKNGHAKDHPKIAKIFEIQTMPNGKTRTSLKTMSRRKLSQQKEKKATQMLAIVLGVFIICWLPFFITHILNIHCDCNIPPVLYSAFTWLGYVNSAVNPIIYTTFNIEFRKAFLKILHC
Outline: as §1

[7] = molecular target: T5, serotoninergic 5-HT1A receptor (Homo sapiens, UniProt P08908); test: Binding assay 5-HT1A (h), [3H]8-OH-DPAT, HEK-293 cells; set-up: expressed in transfected cells; host or cells: HEK-293 cells; conditions: read-out: 5-HT1A
T5 sequence (P08908 1-422): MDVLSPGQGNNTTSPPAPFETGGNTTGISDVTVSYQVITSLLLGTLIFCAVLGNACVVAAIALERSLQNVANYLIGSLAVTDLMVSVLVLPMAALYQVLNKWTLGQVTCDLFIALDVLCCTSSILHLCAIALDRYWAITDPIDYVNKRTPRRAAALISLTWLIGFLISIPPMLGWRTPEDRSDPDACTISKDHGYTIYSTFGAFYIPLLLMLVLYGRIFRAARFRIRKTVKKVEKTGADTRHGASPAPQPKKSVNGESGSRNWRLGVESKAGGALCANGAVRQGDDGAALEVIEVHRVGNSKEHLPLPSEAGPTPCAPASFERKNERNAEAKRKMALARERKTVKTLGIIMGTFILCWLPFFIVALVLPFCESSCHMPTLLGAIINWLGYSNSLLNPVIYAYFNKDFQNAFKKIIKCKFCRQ
Outline: as §1

[8] = molecular target: T3, serotoninergic 5-HT7 receptor; test: Cellular functional assay, serotoninergic 5-HT7 receptor (agonism/antagonism); type: cell-based; conditions: for activation at 1 µM: agonist effect, percent of control specific agonist response, compounds tested at 1×10^−6M, read-out: 5-HT7-ag [%]; for inhibition at 1 µM: read-out: 5-HT7-antag. [%]
Experimental: (§2) The compounds were tested at the concentration of 1×10^−6M.
(§3) In the Tables ag refers to agonism, and antag to antagonism).

[9] = molecular target: T4, serotoninergic 5-HT6 receptor; test: Cellular functional assay, serotoninergic 5-HT6 receptor (agonism/antagonism); type: cell-based; conditions: for inhibition at 1 µM: read-out: 5-HT6-antag. [%]
Experimental: as §2, §3

[10] = test system: sigma σ receptor; test: Binding assay σ (non-selective), [3H]DTG, rat cerebral cortex; conditions: percent inhibition of control specific binding; compounds tested at 1×10^−6 M
Outline: as §1

[11] = molecular target: dopaminergic D3 receptor (Homo sapiens, UniProt P35462); test: Binding assay D3 (h), [3H]methyl-spiperone, CHO cells; set-up: expressed in transfected cells; host or cells: CHO cells; conditions: read-out: D3 [%]
Sequence of dopaminergic D3 receptor (P35462 whole entry): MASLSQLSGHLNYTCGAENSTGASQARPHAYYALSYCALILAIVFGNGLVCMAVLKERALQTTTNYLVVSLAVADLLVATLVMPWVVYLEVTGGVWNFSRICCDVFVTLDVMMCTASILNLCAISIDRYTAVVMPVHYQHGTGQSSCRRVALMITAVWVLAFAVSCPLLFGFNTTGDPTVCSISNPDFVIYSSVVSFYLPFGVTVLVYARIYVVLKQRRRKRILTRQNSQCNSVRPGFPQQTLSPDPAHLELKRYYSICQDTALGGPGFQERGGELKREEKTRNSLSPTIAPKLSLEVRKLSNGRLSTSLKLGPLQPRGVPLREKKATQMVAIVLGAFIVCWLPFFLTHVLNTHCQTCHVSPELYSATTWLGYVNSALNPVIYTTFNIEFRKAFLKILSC
Outline: as §1

[12] = molecular target: T6, serotoninergic receptor 5-HT2C (Homo sapiens, UniProt P28335); test: Binding assay 5-HT2C (h), [3H]mesulergine, HEK-293 cells; conditions: read-out: 5-HT2C [%]
T6 construct: expressed in transfected cells; host or cells: HEK-293 cells
T6 sequence (P28335 33-458): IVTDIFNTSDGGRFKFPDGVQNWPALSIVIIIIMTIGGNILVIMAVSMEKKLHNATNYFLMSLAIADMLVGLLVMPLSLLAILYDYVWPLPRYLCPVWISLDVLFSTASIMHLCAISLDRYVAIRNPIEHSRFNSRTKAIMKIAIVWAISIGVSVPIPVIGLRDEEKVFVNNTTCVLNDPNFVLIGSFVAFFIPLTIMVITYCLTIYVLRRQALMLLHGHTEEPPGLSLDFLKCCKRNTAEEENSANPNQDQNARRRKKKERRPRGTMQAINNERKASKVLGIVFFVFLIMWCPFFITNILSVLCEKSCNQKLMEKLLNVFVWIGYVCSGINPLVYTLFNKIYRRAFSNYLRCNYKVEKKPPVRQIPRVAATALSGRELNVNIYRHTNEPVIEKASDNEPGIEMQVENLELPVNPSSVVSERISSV
Outline: as §1

[13] = molecular target: histaminergic H1 receptor (Homo sapiens, UniProt P35367); test: Binding assay H1 (h), [3H]pyrilamine, HEK-293 cells; set-up: expressed in transfected cells; host or cells: HEK-293 cells; conditions: read-out: H1 [%]
Outline: as §1

[14] = molecular target: T7, serotonine transporter (SERT) receptor (Homo sapiens, UniProt P31645); test: Binding assay SERT (h), [3H]imipramine, CHO cells; conditions: read-out: SERT [%]
T7 construct: expressed in transfected cells; host or cells: CHO cells
T7 sequence (P31645 whole entry): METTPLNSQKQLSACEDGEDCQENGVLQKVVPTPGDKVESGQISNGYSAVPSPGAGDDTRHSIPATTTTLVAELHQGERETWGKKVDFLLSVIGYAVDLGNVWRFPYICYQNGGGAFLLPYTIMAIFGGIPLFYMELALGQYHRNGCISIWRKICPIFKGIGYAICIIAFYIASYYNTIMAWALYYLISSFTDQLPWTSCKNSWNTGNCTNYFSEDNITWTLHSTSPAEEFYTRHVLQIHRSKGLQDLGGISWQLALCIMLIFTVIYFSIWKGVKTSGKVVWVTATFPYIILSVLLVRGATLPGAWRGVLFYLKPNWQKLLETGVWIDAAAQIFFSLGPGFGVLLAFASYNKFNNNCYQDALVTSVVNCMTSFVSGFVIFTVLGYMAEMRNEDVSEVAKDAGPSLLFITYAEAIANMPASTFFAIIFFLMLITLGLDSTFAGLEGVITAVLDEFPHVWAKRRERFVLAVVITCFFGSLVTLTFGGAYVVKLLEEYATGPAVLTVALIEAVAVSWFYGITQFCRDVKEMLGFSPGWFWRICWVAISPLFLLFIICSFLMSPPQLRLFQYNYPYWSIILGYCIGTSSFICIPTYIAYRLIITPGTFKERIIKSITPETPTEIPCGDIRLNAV
Outline: as §1

[15] = molecular target: serotoninergic 5-HT2A receptor (Homo sapiens, UniProt P28223); test: Binding assay 5-HT2A (h), [3H]ketanserin, HEK-293 cells; set-up: expressed in transfected cells; host or cells: HEK-293 cells; conditions: read-out: 5-HT2A
Sequence of serotoninergic 5-HT2A receptor (P28223 whole entry): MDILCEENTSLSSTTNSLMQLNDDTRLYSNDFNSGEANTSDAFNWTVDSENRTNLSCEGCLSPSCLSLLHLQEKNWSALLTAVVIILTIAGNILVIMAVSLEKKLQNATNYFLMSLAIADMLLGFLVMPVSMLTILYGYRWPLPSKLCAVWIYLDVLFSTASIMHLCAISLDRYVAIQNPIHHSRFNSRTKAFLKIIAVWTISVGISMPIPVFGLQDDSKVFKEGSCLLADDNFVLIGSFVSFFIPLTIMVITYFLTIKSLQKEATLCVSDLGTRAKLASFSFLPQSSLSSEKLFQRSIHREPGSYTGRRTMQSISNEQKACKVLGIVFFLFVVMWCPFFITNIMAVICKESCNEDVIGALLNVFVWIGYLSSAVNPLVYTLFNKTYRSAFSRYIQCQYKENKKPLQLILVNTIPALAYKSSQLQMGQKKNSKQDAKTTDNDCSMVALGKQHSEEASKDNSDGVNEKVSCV
Outline: as §1

[16] = molecular target: T8, muscarinic M3 receptor (Homo sapiens, UniProt P20309); test: Binding assay M3 (h), [3H]4-DAMP, CHO cells; conditions: read-out: M3 [%]
T8 construct: expressed in transfected cells; host or cells: CHO cells
T8 sequence (P20309 whole entry): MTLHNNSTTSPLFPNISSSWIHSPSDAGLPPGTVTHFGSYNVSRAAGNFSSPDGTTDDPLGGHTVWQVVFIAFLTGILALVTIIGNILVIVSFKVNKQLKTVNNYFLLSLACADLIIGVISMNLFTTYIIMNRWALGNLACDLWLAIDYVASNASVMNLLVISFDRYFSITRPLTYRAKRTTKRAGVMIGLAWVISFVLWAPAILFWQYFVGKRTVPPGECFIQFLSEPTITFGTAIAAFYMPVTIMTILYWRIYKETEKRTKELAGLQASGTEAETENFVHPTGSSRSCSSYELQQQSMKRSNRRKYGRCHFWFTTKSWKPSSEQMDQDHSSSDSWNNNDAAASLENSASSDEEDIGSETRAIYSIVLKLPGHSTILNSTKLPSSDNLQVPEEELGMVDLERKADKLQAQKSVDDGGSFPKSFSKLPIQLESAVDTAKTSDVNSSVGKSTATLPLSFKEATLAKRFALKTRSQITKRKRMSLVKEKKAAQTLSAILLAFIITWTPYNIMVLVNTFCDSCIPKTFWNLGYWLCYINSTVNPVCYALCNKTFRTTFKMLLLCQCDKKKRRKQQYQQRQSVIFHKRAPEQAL
Outline: as §1

[17] = molecular target: T1, hERG potassium channels
Experimental: as §4, §5, §6

T1 sequence (Q12809 whole entry): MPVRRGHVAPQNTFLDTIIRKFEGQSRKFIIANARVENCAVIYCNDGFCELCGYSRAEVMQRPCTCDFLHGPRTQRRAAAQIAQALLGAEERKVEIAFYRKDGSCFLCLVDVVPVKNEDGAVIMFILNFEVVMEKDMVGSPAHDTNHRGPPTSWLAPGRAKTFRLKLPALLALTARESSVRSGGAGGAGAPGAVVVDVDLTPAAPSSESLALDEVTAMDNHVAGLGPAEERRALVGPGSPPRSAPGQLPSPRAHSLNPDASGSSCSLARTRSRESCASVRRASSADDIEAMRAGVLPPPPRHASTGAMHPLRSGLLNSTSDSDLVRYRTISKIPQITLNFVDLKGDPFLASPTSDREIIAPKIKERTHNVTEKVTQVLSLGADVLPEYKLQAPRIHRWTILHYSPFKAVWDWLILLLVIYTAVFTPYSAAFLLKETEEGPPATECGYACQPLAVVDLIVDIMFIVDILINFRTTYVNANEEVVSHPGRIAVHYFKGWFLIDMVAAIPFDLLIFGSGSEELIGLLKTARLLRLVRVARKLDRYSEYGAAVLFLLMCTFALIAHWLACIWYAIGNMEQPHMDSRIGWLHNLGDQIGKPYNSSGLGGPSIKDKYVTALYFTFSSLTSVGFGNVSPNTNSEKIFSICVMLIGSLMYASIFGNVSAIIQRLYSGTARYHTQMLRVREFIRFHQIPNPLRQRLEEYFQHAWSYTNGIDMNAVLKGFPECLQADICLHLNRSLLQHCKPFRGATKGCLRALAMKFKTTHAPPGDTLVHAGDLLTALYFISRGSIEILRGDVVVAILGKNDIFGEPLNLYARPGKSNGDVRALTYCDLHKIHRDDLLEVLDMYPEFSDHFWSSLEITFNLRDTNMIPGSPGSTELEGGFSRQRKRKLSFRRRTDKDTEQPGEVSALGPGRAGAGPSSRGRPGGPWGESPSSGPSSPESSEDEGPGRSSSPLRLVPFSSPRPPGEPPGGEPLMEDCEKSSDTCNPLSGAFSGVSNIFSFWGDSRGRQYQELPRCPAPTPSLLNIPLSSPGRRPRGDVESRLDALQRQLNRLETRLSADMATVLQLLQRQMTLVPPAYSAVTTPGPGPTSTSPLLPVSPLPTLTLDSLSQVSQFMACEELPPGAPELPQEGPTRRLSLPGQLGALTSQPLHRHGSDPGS

Row | Structure (SMILES) | hERG [%] [1] [%] | inhibition at 1 µM [2] [%] | inhibition at 1 µM [3] [%] | inhibition at 1 µM [4] [%] | α1 [%] [5] [%] | inhibition at 1 µM [6] [%] | inhibition at 1 µM [7] [%] | activation at 1 µM [8] [%] | inhibition at 1 µM [8] [%] | inhibition at 1 µM [9] [%] | σ [%] [10] [%] | inhibition at 1 µM [11] [%] | inhibition at 1 µM [12] [%] | inhibition at 1 µM [13] [%] | inhibition at 1 µM [14] [%] | inhibition at 1 µM [15] [%] | inhibition at 1 µM [16] [%] | activation at 1 µM ([9]; agonist effect, percent of control specific agonist response, compounds tested at 1×10^−6M, read-out: 5-HT6-ag [%]) [%] | hERG [%] [17] [%]
1 | O=S(=O)(NCCCN1CCN(c2nsc3ccccc23)CC1)c1cccc2ccccc12 [Compound 5, N-(3-(4-(1,2-Benzothiazol-3-yl)piperazin-1-yl)propyl)naphthalene-1-sulphonamide] | 17 | 99 | 98 | 84 | 98 | 96 | 99 | -1 | 85 | 18 | 72 | 98 | 81 | 92 | 84 | 99 | 7 |  | 
2 | O=S(=O)(NCCCN1CCN(c2nsc3ccccc23)CC1)c1ccc2ccccc2c1 [Compound 6, N-(3-(4-(1,2-Benzothiazol-3-yl)piperazin-1-yl)propyl)naphthalene-2-sulphonamide] | 13 | 93 | 98 | 88 | 95 | 96 | 99 | 0 | 66 | 26 | 59 | 97 | 88 | 93 | 95 | 100 | -1 |  | 
3 | O=S(=O)(NCCCCN1CCC(c2noc3cc(F)ccc23)CC1)c1cccc2ccccc12 [Compound 17, N-[4-[4-(6-Fluoro-1,2-benzoxazol-3-yl)piperidin-1-yl]butyl]naphthalene-1-sulphonamide] | 24 | 100 | 99 | 99 |  | 98 | 84 |  | 95 | 69 |  | 93 | 62 | 80 | 44 | 100 | 7 | 2 | 
4 | O=S(=O)(NCCCCN1CCN(c2cccc3[nH]ccc23)CC1)c1c[nH]c2ncccc12 [Compound 31, N-{4-[4-(1H-Indol-4-yl)piperazin-1-yl]butyl}-1H-pyrrolo[2,3-b]pyridine-3-sulphonamide] | 2 |  | 87 | 18 | 101 | 38 | 82 |  |  |  |  | 96 |  |  | -2 | 36 |  |  | 
5 | O=S(=O)(NCCCCN1CCN(c2cccc3[nH]ccc23)CC1)c1ccc(C(F)(F)F)cc1 [Compound 360, N-[4-[4-(1H-Indol-4-yl)piperazin-1-yl]butyl]-4-(trifluoromethyl)benzenesulphonamide] | 5 |  | 100 | 67 | 93 | 99 | 83 |  |  |  |  | 100 |  |  | 8 | 67 |  |  | 
6 | Cc1[nH]c2ccc(Cl)cc2c1C1=CCN(CCCNS(=O)(=O)c2cccc(O)c2)CC1 [Compound 445, N-[3-[4-(5-Chloro-2-methyl-1H-indol-3-yl)-3,6-dihydro-2H-pyridin-1-yl]propyl]-3-hydroxybenzenesulphonamide] |  | 69 | 98 | 84 | 50 | 98 | 93 |  |  |  | 67 | 97 | 67 | 60 | 68 | 78 | 27 |  | 2
